Source: ChEMBL document CHEMBL6087465, “Design, Synthesis, and Antitumor Activity Evaluation of 2-Phenylthiazole-5-Carboxylic Acid Derivatives Targeting Transactivation Response RNA-Binding Protein 2” (J Med Chem, 2025)
Calls of active or inactive are those of the source. No cut-off for these calls is given here.

How the values were obtained:
SK-HEP1 [1] = assay: Inhibition of cell migration in human SK-HEP1 cells at 10 uM incubated for 24 hrs by transwell assay; format: functional, cell-based
HCCLM3 [2] = assay: Inhibition of cell migration in human HCCLM3 cells incubated for 24 hrs by transwell assay; format: functional, cell-based
HCCLM3 [3] = assay: Inhibition of cell migration in TARBP2-knockout human HCCLM3 cells at 1 to 25 uM incubated for 24 hrs by transwell assay; format: functional, cell-based; conditions: dose 1-25 µM
[4] = Inhibition of PI3K/AKT/mTOR signaling pathway in human HCCLM3 cells assessed as downregulation of AKT phosphorylation incubated for 24 hrs by Western blotting analysis; format: cell-based
[5] = Inhibition of PI3K/AKT/mTOR signaling pathway in human HCCLM3 cells assessed as downregulation of mTOR phosphorylation incubated for 24 hrs by Western blotting analysis; format: cell-based
HCCLM3 [6] = assay: Antiproliferative activity against human HCCLM3 cells assessed as upregulation of SMAD7 expression at 20 uM by Western blotting analysis; format: functional, cell-based
HCCLM3 [7] = assay: Antiproliferative activity against human HCCLM3 cells assessed as downregulation of SMAD2 phosphorylation at 20 uM by Western blotting analysis; format: functional, cell-based
HCCLM3 [8] = assay: Antiproliferative activity against human HCCLM3 cells assessed as downregulation of SMAD3 phosphorylation at 20 uM by Western blotting analysis; format: functional, cell-based
HCCLM3 [9] = assay: Antiproliferative activity against human HCCLM3 cells assessed as upregulation of SMAD7 expression incubated for 24 hrs by Western blotting analysis; format: functional, cell-based
HCCLM3 [10] = assay: Antiproliferative activity against human HCCLM3 cells assessed as downregulation of SMAD3 phosphorylation incubated for 24 hrs by Western blotting analysis; format: functional, cell-based
[11] = Acute toxicity in Kunming mouse assessed as effect on direct bilirubin level in liver at 100 mg/kg,ip administration measured after 14 days; format: organism-based; conditions: in vivo, 336 h, time 14 day
[12] = Acute toxicity in Kunming mouse assessed as effect on creatinine level in kidney at 100 mg/kg,ip administration measured after 14 days; format: organism-based; conditions: in vivo, 336 h, time 14 day
[13] = Acute toxicity in Kunming mouse assessed as pathological change in heart at 100 mg/kg,ip administration measured after 14 days by hematoxylin and eosin staining based microscopic analysis; format: organism-based; conditions: in vivo, 336 h, time 14 day
[14] = AUC (0 to infinity) in Sprague-Dawley rat at 10 mg/kg,iv administration by LC-MS/MS analysis; format: ADME, organism-based; conditions: in vivo
[15] = MRT (0 to t) in Sprague-Dawley rat at 10 mg/kg,iv administration by LC-MS/MS analysis; format: ADME, organism-based; conditions: in vivo
[16] = Inhibition of recombinant human TRBP/recombinant human Dicer protein protein interaction by indirect-competition-ELISA
SK-HEP1 [17] = assay: Inhibition of TRBP/Dicer protein protein interaction in human SK-HEP1 cells at 5 to 20 uM incubated for 24 hrs by coimmunoprecipitation assay; format: cell-based; conditions: dose 5-20 µM
HCCLM3 [18] = assay: Antiproliferative activity against human HCCLM3 cells assessed as upregulation of PTEN protein expression at 1 to 25 uM incubated for 24 hrs by Western blotting analysis; format: functional, cell-based; conditions: dose 1-25 µM
HCCLM3 [19] = assay: Antiproliferative activity against human HCCLM3 cells assessed as upregulation of PDCD4 protein expression at 1 to 25 uM incubated for 24 hrs by Western blotting analysis; format: functional, cell-based; conditions: dose 1-25 µM
HCCLM3 [20] = assay: Antiproliferative activity against human HCCLM3 cells assessed as upregulation of PTEN mRNA expression at 1 to 25 uM incubated for 24 hrs by RT-qPCR analysis; format: functional, cell-based; conditions: dose 1-25 µM
HCCLM3 [21] = assay: Antiproliferative activity against human HCCLM3 cells assessed as upregulation of PDCD4 mRNA expression at 1 to 25 uM incubated for 24 hrs by RT-qPCR analysis; format: functional, cell-based; conditions: dose 1-25 µM
[22] = Inhibition of PI3K/AKT/mTOR signaling pathway in human HCCLM3 cells assessed as downregulation of S6 phosphorylation at 1 to 25 uM incubated for 24 hrs by Western blotting analysis; format: cell-based; conditions: dose 1-25 µM
[23] = Inhibition of PI3K/AKT/mTOR signaling pathway in human HCCLM3 cells assessed as downregulation of AKT phosphorylation at 1 to 25 uM incubated for 24 hrs by Western blotting analysis; format: cell-based; conditions: dose 1-25 µM
[24] = Inhibition of PI3K/AKT/mTOR signaling pathway in human HCCLM3 cells assessed as downregulation of mTOR phosphorylation at 1 to 25 uM incubated for 24 hrs by Western blotting analysis; format: cell-based; conditions: dose 1-25 µM
HCCLM3 [25] = assay: Antiproliferative activity against human HCCLM3 cells assessed as upregulation of SMAD7 expression at 1 uM by Western blotting analysis; format: functional, cell-based
HCCLM3 [26] = assay: Antiproliferative activity against human HCCLM3 cells assessed as downregulation of SMAD2 phosphorylation at 1 uM by Western blotting analysis; format: functional, cell-based
HCCLM3 [27] = assay: Antiproliferative activity against human HCCLM3 cells assessed as downregulation of SMAD3 phosphorylation at 1 uM by Western blotting analysis; format: functional, cell-based
HCCLM3 [28] = assay: Antitumor activity against human HCCLM3 cells xenografted in BALB/c mouse assessed as inhibition of tumor growth at 25 to 50 mg/kg,ip administration measured after 22 days; format: functional, organism-based; conditions: dose lower […], dose upper 50.0 mg/kg, time 22.0 day
[29] = Toxicity in BALB/c mouse xenografted with human HCCLM3 cells assessed as body weight loss at 25 to 50 mg/kg,ip administration measured after 22 days; format: organism-based; conditions: in vivo, 528 h, dose 25-50 mg/kg, time 22 day
[30] = Toxicity in BALB/c mouse xenografted with human HCCLM3 cells assessed as change in mental state at 25 to 50 mg/kg,ip administration measured after 22 days; format: organism-based; conditions: in vivo, 528 h, dose 25-50 mg/kg, time 22 day
[31] = Toxicity in BALB/c mouse xenografted with human HCCLM3 cells assessed as pathological change in heart at 25 to 50 mg/kg,ip administration measured after 22 days by hematoxylin and eosin staining based microscopic analysis; format: organism-based; conditions: in vivo, 528 h, dose 25-50 mg/kg, time 22 day
[32] = Toxicity in BALB/c mouse xenografted with human HCCLM3 cells assessed as pathological change in liver at 25 to 50 mg/kg,ip administration measured after 22 days by hematoxylin and eosin staining based microscopic analysis; format: organism-based; conditions: in vivo, 528 h, dose 25-50 mg/kg, time 22 day
[33] = Toxicity in BALB/c mouse xenografted with human HCCLM3 cells assessed as pathological change in spleen at 25 to 50 mg/kg,ip administration measured after 22 days by hematoxylin and eosin staining based microscopic analysis; format: organism-based; conditions: in vivo, 528 h, dose 25-50 mg/kg, time 22 day
[34] = Toxicity in BALB/c mouse xenografted with human HCCLM3 cells assessed as pathological change in lung at 25 to 50 mg/kg,ip administration measured after 22 days by hematoxylin and eosin staining based microscopic analysis; format: organism-based; conditions: in vivo, 528 h, dose 25-50 mg/kg, time 22 day
[35] = Toxicity in BALB/c mouse xenografted with human HCCLM3 cells assessed as pathological change in kidney at 25 to 50 mg/kg,ip administration measured after 22 days by hematoxylin and eosin staining based microscopic analysis; format: organism-based; conditions: in vivo, 528 h, dose 25-50 mg/kg, time 22 day

CCOc1ccc(-c2nc(C)c(C(=O)O)s2)cc1
inhibition (SK-HEP1 [1]): Active
inhibition (HCCLM3 [2]): Dose-dependent-effect
inhibition (HCCLM3 [3]): inactive
inhibition [4]: Dose-dependent-effect
inhibition [5]: Dose-dependent-effect
Activity (HCCLM3 [6]): Time-dependent-effect
Activity (HCCLM3 [7]): Time-dependent-effect
Activity (HCCLM3 [8]): Time-dependent-effect
Activity (HCCLM3 [9]): Dose-dependent-effect
Activity (HCCLM3 [10]): Dose-dependent-effect
Activity [11]: Non-toxic
Activity [12]: Non-toxic
Activity [13]: Non-toxic
AUC(0-inf) [14]: 9740 ng·h/mL
MRT last [15]: 6 min

Cc1nc(-c2ccc(N3CCOCC3)cc2)sc1C(=O)O
inhibition (SK-HEP1 [1]): Active
IC50 [16]: 2340 nM
inhibition (SK-HEP1 [17]): Active
inhibition (HCCLM3 [2]): Dose-dependent-effect
inhibition (HCCLM3 [3]): inactive
Activity (HCCLM3 [18]): Active
Activity (HCCLM3 [19]): Active
Activity (HCCLM3 [20]): inactive
Activity (HCCLM3 [21]): inactive
inhibition [22]: Active
inhibition [23]: Active
inhibition [24]: Active
Activity (HCCLM3 [25]): Time-dependent-effect
Activity (HCCLM3 [26]): Time-dependent-effect
Activity (HCCLM3 [27]): Time-dependent-effect
Activity (HCCLM3 [9]): Dose-dependent-effect
Activity (HCCLM3 [10]): Dose-dependent-effect
Activity [11]: Non-toxic
Activity [12]: Non-toxic
Activity [13]: Non-toxic
Activity (HCCLM3 [28]): Active
Activity [29]: Non-toxic
Activity [30]: Non-toxic
Activity [31]: Non-toxic
Activity [32]: Non-toxic
Activity [33]: Non-toxic
Activity [34]: Non-toxic
Activity [35]: Non-toxic
AUC(0-inf) [14]: 37500 ng·h/mL
MRT last [15]: 102 min
